Read-outs that look alike come from different tables or passages of the source.
Tests used:
TNF = experiment: PBMC assay: TNF cytokine levels after LPS stimulation (MSD); assay type: cell-based; conditions: PBMC, human PBMCs, 100 ng/ml LPS for 6 hrs
Outline: (§1)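 TNF (EC50) and IL-1β (IC50) were quantified by MSD in supernatants after 6 h stimulation with 100 ng/ml LPS. Thawed healthy-donor PBMCs, 7.5×10^4 per well, were exposed to 1:3 compound dilutions for 30 min beforehand at 37 °C.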

IL-1β = experiment: PBMC assay: inhibition of IL-1β release after LPS stimulation (MSD); assay type: cell-based; conditions: PBMC, human PBMCs, 100 ng/ml LPS for 6 hrs, MSD, 96 well plates, read-out: IL1β IC50
Outline: as §1

SMILES | EC50 (TNF; Homo sapiens, 6 h) | IC50 (IL-1β; Homo sapiens, 6 h) | melting point | EC50 (TNF) | IC50 (IL-1β)
CCN1CC[C@@H](O)[C@@H](NC(=O)Cn2nc(C3CC3)c3cc(C(F)(F)F)ccc3c2=O)C1 [Final Cpd X19] | > 20 µM | 0.161 µM | 178.86 °C | – | –
CC(C)c1nn(CC(=O)Nc2ccc3nc[nH]c3n2)c(=O)c2ccc(C(F)(F)F)cc12 [Final Cpd X13] | > 20 µM | 0.114 µM | 295.46 °C | – | –
CC(C)c1nn(CC(=O)Nc2ccc3cncn3c2)c(=O)c2ccc(C(F)(F)F)cc12 [Final Cpd X20] | 15.5 µM | 0.164 µM | 222.09 °C | – | –
O=C(Cn1nc(C2CC2)c2cc(C(F)(F)F)ccc2c1=O)Nc1ccc2nncn2c1 [Final Cpd X23] | > 20 µM | 0.172 µM | 294.49 °C | – | –
CC(C)c1nn(CC(=O)Nc2ccc3nccn3n2)c(=O)c2ccc(C(F)(F)F)cc12 [Final Cpd X16] | > 20 µM | 0.137 µM | 238.55 °C | – | –
CC(C)c1nn(CC(=O)Nc2cc(F)[nH]c(=O)c2)c(=O)c2ccc(C(F)(F)F)cc12 [Final Cpd X22] | > 20 µM | 0.17 µM | 232.18 °C | – | –
CC(C)c1nn(CC(=O)Nc2ccn3ncnc3c2)c(=O)c2ccc(C(F)(F)F)cc12 [Final Cpd X90] | > 20 µM | 0.936 µM | 215.56 °C | – | –
CC(C)c1nn(CC(=O)Nc2ccc3nncn3n2)c(=O)c2ccc(C(F)(F)F)cc12 [Final Cpd X2, N-([1,2,4]triazolo[4,3-b]pyridazin-6-yl)-2-(4-isopropyl-1-oxo-6-(trifluoromethyl)phthalazin-2(1H)-yl)acetamide] | 5.58 µM | 0.03 µM | 246.08 °C | – | –
CC(C)c1nn(CC(=O)Nc2ccc3nncn3c2)c(=O)c2ccc(C3CC3(F)F)cc12 (stereo not shown) [X-1069] | 14.1 µM | 1.14 µM | – | – | –
CCc1nn(CC(=O)N[C@H]2C[C@@](C)(O)C2)c(=O)c2ccc(C3CC3)cc12 [Final Cpd 21] | > 10 µM | 0.29 µM | – | – | –
CCc1nn(CC(=O)NC2CC2)c(=O)c2ccccc12 [Final Cpd 14] | > 20 µM | > 20 µM | – | – | –
CCc1nn(CC(=O)N[C@H]2CC[C@H](O)CC2)c(=O)c2ccc(C(F)(F)F)cc12 [Final Cpd 30] | > 10 µM | 1.29 µM | – | – | –
CC(=O)N1C[C@H](O)C[C@@H](NC(=O)Cn2nc(C(C)C)c3cc(C(F)(F)F)ccc3c2=O)C1 (single isomer, unassigned) [Final Cpd X138] | > 20 µM | 4.02 µM | – | – | –
CCN1CC[C@@H](NC(=O)Cn2nc(C(C)C)c3cc(C(F)(F)F)ccc3c2=O)[C@@H](O)C1 (single isomer, unassigned) [Final Cpd X139] | > 20 µM | 4.28 µM | – | – | –
CC[C@]1(O)C[C@@H](NC(=O)Cn2nc(C(C)C)c3cc(Br)ccc3c2=O)C1 [X-1090, 2-(6-bromo-4-isopropyl-1-oxophthalazin-2(1H)-yl)-N-((1r,3s)-3-ethyl-3-hydroxycyclobutyl)acetamide] | – | – | – | > 20 µM | 0.122 µM
CC(C)c1nn(CC(=O)N[C@H]2C[C@@](C)(O)C2)c(=O)c2ccc(Cl)cc12 [X-1027] | > 20 µM | 0.06 µM | – | – | –

SMILES | EC50 (TNF; Homo sapiens, 6 h) | IC50 (IL-1β; Homo sapiens, 6 h) | melting point | EC50 (TNF) | IC50 (IL-1β)
Cn1nc(NC(=O)Cn2nc(C(F)F)c3cc(Br)ccc3c2=O)ccc1=O [X-1021] | > 20 µM | 0.437 µM | – | – | –
CC(C)c1nn(CC(=O)Nc2ccc3nncn3c2)c(=O)c2ccc(C(C)(C)F)cc12 [X-1076] | 19.7 µM | 0.033 µM | – | – | –
CCN1CCc2cc(NC(=O)Cn3nc(C(C)C)c4cc(C(F)(F)F)ccc4c3=O)ccc21 [Final Cpd X171] | > 20 µM | > 20 µM | – | – | –
CCc1nn(CC(=O)Nc2ccncn2)c(=O)c2ccc(C)cc12 [Final Cpd 4] | > 10 µM | 2.91 µM | – | – | –
CC(=O)N1C[C@H](O)C[C@H](NC(=O)Cn2nc(C(C)C)c3cc(C(F)(F)F)ccc3c2=O)C1 (single isomer, unassigned) [Final Cpd X150] | > 20 µM | 7.37 µM | – | – | –
COC(C)c1ccc2c(=O)n(CC(=O)N[C@H]3C[C@@](C)(O)C3)nc(C(C)C)c2c1 (stereo partly shown) [X-1055] | > 20 µM | 2.13 µM | – | – | –
O=C(Cn1nc(C2CC2)c2cc(Br)ccc2c1=O)Nc1ccc2nncn2c1 [X-1023] | > 20 µM | 0.101 µM | – | – | –
CC(C)c1nn(CC(=O)Nc2ccc3c(c2)nnn3C)c(=O)c2ccc(C(F)(F)F)cc12 [Final Cpd X113] | > 20 µM | 1.86 µM | – | – | –
CCc1nn(CC(=O)Nc2ccncn2)c(=O)c2ccc(C(F)(F)F)cc12 [Final Cpd 9] | > 10 µM | 0.58 µM | – | – | –
CC(C)c1nn(CC(=O)N[C@@H]2CCCN(C3CC3)C2)c(=O)c2ccc(Br)cc12 [X-1035] | > 20 µM | 0.032 µM | – | – | –
CC(C)c1nn(CC(=O)Nc2ccc3nccn3n2)c(=O)c2ccc(C(C)(C)F)cc12 [X-1011] | 7.56 µM | 0.089 µM | – | – | –
CC(C)c1nn(CC(=O)Nc2ccc3nncn3c2)c(=O)c2ccc(C3CC3)cc12 [Final Cpd 31] | 13.6 µM | 0.103 µM | – | – | –
CC(C)(F)c1nn(CC(=O)Nc2ccnnc2)c(=O)c2ccc(C(F)(F)F)cc12 [Final Cpd X155] | 17.6 µM | 7.91 µM | – | – | –
CC(C)c1nn(CC(=O)N[C@H]2C[C@@](C)(O)C2)c(=O)c2ccc(C3CC3(F)F)cc12 (stereo partly shown) [X-1068] | > 20 µM | 2.8 µM | – | – | –
CO[C@H]1CC[C@@H](NC(=O)Cn2nc(C(C)C)c3cc(C(F)(F)F)ccc3c2=O)CC1 [Final Cpd X131] | > 20 µM | 3.09 µM | – | – | –

Source: patent publication US20230202989A1, “COMPOUNDS” (JANSSEN PHARMACEUTICA NV, priority 2020, published 2023)
